Source: patent publication US20090270352A1, “Tenofovir Disoproxil Hemi-Fumaric Acid Co-Crystal” (ULTIMORPHIX TECHNOLOGIES B.V., priority 2007, published 2009)
Where a name gives a salt, the structure may show the parent alone.

Assay: Dynamic Vapour Sorption (DVS) moisture sorption isotherm
Type: physicochemical
Conditions: for total uptake of water vapours: DVS, 25° C., relative humidity 0% to 95% in steps of 5%, 1 h per step, sorption-desorption cycle
Protocol: Moisture sorption isotherms were measured using a DVS-1 system of Surface Measurement Systems (London, UK). Differences in moisture uptake of various forms of a solid material indicate differences in the relative stabilities of the various solid forms for increasing relative humidity. The experiment was carried out at a constant temperature of 25° C.
A sample of about 11.5 mg of form TDFA 2:1 was spread in the DVS pan. The sample was dried at 0% RH for 7 h. Subsequently the relative humidity of the chamber was increased in steps of 5% units from 0% to 95% in order to monitor the sorption of water vapours. The samples remained in each of the steps for 1 h. Following, desorption was monitored by decreasing the relative humidity to 0% in steps of 5% units and remaining at each step for 1 h. The total uptake of water vapours was about 0.8%, which is line with the industry standard for hygroscopicity. In a similar DVS experiment using the starting material as purchased, the total vapour intake was about 4%, which is undesirable in formulation and requires additional measures.

Row | SMILES | total uptake of water vapours | changes in the structure by XRPD at the end of the DVS experiment (solid material measured by XRPD after the DVS sorption-desorption cycle (FIG. 4))
1 | CC(C)OC(=O)OCOP(=O)(CO[C@H](C)Cn1cnc2c(N)ncnc21)OCOC(=O)OC(C)C.CC(C)OC(=O)OCOP(=O)(CO[C@H](C)Cn1cnc2c(N)ncnc21)OCOC(=O)OC(C)C.O=C(O)/C=C/C(=O)O [TDFA 2:1, co-crystal of tenofovir disoproxil and fumaric acid in a 2:1 molar ratio] | about 0.8% | no any changes in the structure
2 | CC(C)OC(=O)OCOP(=O)(CO[C@H](C)Cn1cnc2c(N)ncnc21)OCOC(=O)OC(C)C [starting material, 9-[(R)-2-[[bis[[(isopropoxycarbonyl)oxy]methoxy]phosphinyl]-methoxy]propyl] adenine fumarate (1:1), reference compound] | about 4% | 
